Experimental data reported in patent publication US20220235030A1, “SELECTIVE HISTAMINE H3 ANTAGONIST ACID ADDITION SALTS AND PROCESS FOR THE PREPARATION THEREOF” (RICHTER GEDEON NYRT., priority 2019, published 2022).
“Also recorded” adds a separate entry of the source. Where a name gives a salt, the structure may show the parent alone.

Columns and labels:
Format in all cases: physicochemical
[1] = 10-day solid stress stability study, HPLC purity test; conditions: dihydrochloride salt
Source text: Increased stability to ambient humidity is beneficial for longer-term physical and chemical stability of the active ingredient. The relationship between the reduced hygroscopic nature and the increased chemical stability associated with it is shown in the most preferred citrate salts in comparison to the dihydrochloride salt.

[2] = Solubility in simulated gastric fluid; conditions: simulated gastric fluid (SGF without pepsin, pH=1.3); dihydrochloride salt
Source text: The generally observed hygroscopic nature of the 1-[4-(4-{3-[(2R)-2-methyl-pyrrolidin-1-yl]-propoxy}-phenoxy)-piperidin-1-yl]-ethanone salts is inter alia related to the good solubility thereof.

[3] = Thermogravimetric (TG) analysis of thermal stability
Source text: The compound of 1-[4-(4-{3-[(2R)-2-methyl-pyrrolidin-1-yl]-propoxy}-phenoxy)-piperidin-1-yl]-ethanone contains a single strongly basic center (pyrrolidine nitrogen), which is capable of forming stoichiometric salt with equimolar hydrochloride, thus the formation of dihydrochloride stoichiometry is not expected in view of the acid/base character of the compound. Based on TG and DSC analysis, the second molar amount of hydrochloride is less strongly bound to the crystal lattice, behaving as a volatile component. […] (FIG. 8). Parallelly to this process, according to the DSC and microscopic analysis, the sample starting from approx. 100° C. melts during decomposition (FIG. 9).

[4] = Dynamic vapor sorption (DVS) analysis at 25° C., hygroscopicity and deliquescence; parameters: Δm/ΔRH: unit not given beside the values; conditions: for Δm/ΔRH: 25° C.
Protocol: Determination of the critical relative humidity is feasible by gravimetric method, e.g. with DVS, where relative humidity is changed in suitably selected steps and a sufficiently long time is used to the onset of quasi-equilibrium.
The deliquescence tendency of each salt is characterized by the critical relative humidity (CRH) value (Table 1), which was determined based on the sorption curves measured according to the measurement parameter settings below, with DVS analysis at 25° C. isotherm conditions, according to the following. […]
If the given sorption step is Δm/ΔRH≥0.5, then RH1 is considered to be the critical relative humidity (CRH) value indicating the end point of the physical stability of the substance. The value thus determined is a good match with the onset of a significant monotonic weight gain observed visually on the sorption curve. Above the critical relative humidity value, it is the process of deliquescence of the substance that determines the weight gain observed on the sorption curve.

- All contaminant (area %) ([1]; 10 days, 40° C., 75% RH, open glass): 59.56% area %
- All contaminant (area %) ([1]; 10 days, 50° C., 75% RH, open glass): 51.32% area %
- All contaminant (area %) ([1]; 10 days, 50° C., sealed glass): 0.98% area %
- All contaminant (area %) ([1]; 10 days, 75° C., sealed glass): 1.50% area %
- All contaminant (area %) ([1]; starting sample): 0.85% area %
- solubility [2]: greater than 59 mM
- thermal stability (in words) [3]: thermally poorly stable
- Critical Relative Humidity (CRH) ([4]; DVS at 25° C., RH1 of first sorption step with Δm/ΔRH≥0.5, dihydrochloride salt): 60%
- Δm/ΔRH ([4]; RH1 0%, sorption, dihydrochloride salt): 0.0
- Δm/ΔRH ([4]; RH1 10%, sorption, dihydrochloride salt): 0.0
- Δm/ΔRH ([4]; RH1 20%, sorption, dihydrochloride salt): 0.0
- Δm/ΔRH ([4]; RH1 30%, sorption, dihydrochloride salt): 0.0
- Δm/ΔRH ([4]; RH1 40%, sorption, dihydrochloride salt): 0.0
- Δm/ΔRH ([4]; RH1 50%, sorption, dihydrochloride salt): 0.0
- Δm/ΔRH ([4]; RH1 60%, sorption, dihydrochloride salt): 1.7
- Δm/ΔRH ([4]; RH1 70%, sorption, dihydrochloride salt): 2.4
- Δm/ΔRH ([4]; RH1 80%, sorption, dihydrochloride salt): 2.1
- hygroscopicity (in words) ([4]; dihydrochloride salt): highly hygroscopic
- relative weight gain ([4]; sorption curve, at 70% RH): 17%
- relative weight change ([4]; sorption curve, at 90% RH): 63%
- water bound relative to the dried mass ([4]; sorption curve, up to 60% RH): about 0.7%
- relative humidity above which high, continuous weight gain (deliquescence) is observed ([4]; sorption, DVS at 25° C., dihydrochloride salt): above 60%
SMILES: CC(=O)N1CCC(Oc2ccc(OCCCN3CCC[C@H]3C)cc2)CC1 [diHCl, 1-[4-(4-{3-[(2R)-2-methyl-pyrrolidin-1-yl]-propoxy}-phenoxy)-piperidin-1-yl]-ethanone dihydrochloride salt]
- chemical stability (in words) ([1]; 10-day solid stress: heat, heat and humidity): slightly degraded by heat; also recorded: degrades significantly under the combined effect of heat and humidity
